In US4128639A, “Nitrosourea analogs of thymidine” (Research Corporation, priority 1977, dated 1978):
Read-outs that look alike come from different tables or passages of the source.

How the values were obtained:
L1210 leukemia cells = test: Culture study with L1210: inhibition of replication/growth of L1210 cells in vitro; assay type: cell-based; details: Mus musculus, read-out: ED50 (drug concentration needed to inhibit cell growth by 50%)
Method: The effect of the compounds on the growth of L1210 cells in vitro was used as a measure of cytotoxicity. Suspension cultures were grown in Fischer's media supplemented with 10% horse serum at 37°. 72 Hours after addition of the nitrosoureas, cell numbers were determined in two independent samples, in duplicate, using a Coulter counter, for each concentration tested. ED50 values were estimated from dose-response curves compiled from at least three separate experiments and represent the drug concentration needed to inhibit cell growth by 50%.

L1210 cells [1] = test: In vivo study with CDF1 mice inoculated with L1210 cells
Method: Two groups of CDF1 mice were inoculated with 1 × 10^5 L1210 cells/animal intraperitoneally. Two days later, one group of six mice received a single intraperitoneal injection (150 mg/Kg) of compound 5 (5'-[3-(2-chloroethyl)-3-nitrosoureido]-5'-deoxythymidine) and the control group was administered an equal volume of vehicle.

L1210 cells [2] = test: Reversal of cytotoxicity of nitrosourea analogs of thymidine by pyrimidine deoxyribonucleosides (inhibition study in L1210 cultures); assay type: cell-based; details: for Percent Reversal: nitrosourea analog 5 μM
[3] = single intraperitoneal injection 150 mg/kg, 2 days after 1 × 10^5 L1210 cells, CDF1 mice
[4] = reversing agent deoxycytidine 0 μM
[5] = reversing agent deoxycytidine 5 μM
[6] = reversing agent deoxycytidine 25 μM
[7] = reversing agent deoxyuridine 0 μM
[8] = reversing agent deoxyuridine 5 μM
[9] = reversing agent deoxyuridine 25 μM
[10] = reversing agent thymidine 25 μM

| SMILES | IC50 (L1210 leukemia cells; L1210, 72 h) [nM] | Percent Reversal (L1210 cells [2]; [4]) [%] | Percent Reversal (L1210 cells [2]; [5]) [%] | Percent Reversal (L1210 cells [2]; [6]) [%] | Percent Reversal (L1210 cells [2]; [7]) [%] | Percent Reversal (L1210 cells [2]; [8]) [%] | Percent Reversal (L1210 cells [2]; [9]) [%] | Percent Reversal (L1210 cells [2]; reversing agent thymidine 0 μM) [%] | Percent Reversal (L1210 cells [2]; reversing agent thymidine 1 μM) [%] | Percent Reversal (L1210 cells [2]; reversing agent thymidine 5 μM) [%] | Percent Reversal (L1210 cells [2]; [10]) [%] | also measured |
| --- | --- | --- | --- | --- | --- | --- | --- | --- | --- | --- | --- | --- |
| O=NN(CCCl)C(=O)NCCCl [BCNU, 1,3-bis(2-Chloroethyl)-1-nitrosourea, reference compound] | 4000 | – | – | – | – | – | – | – | – | – | – | – |
| Cc1cn([C@H]2C[C@H](O)[C@@H](CNC(=O)N(CCCl)N=O)O2)c(=O)[nH]c1=O [Compound 5, 5'-[3-(2-chloroethyl)-3-nitrosoureido]-5'-deoxythymidine] | – | – | – | – | – | – | – | – | – | – | – | animals survived more than 60 days (L1210 cells [1]; single intraperitoneal injection 150 mg/Kg, 2 days after 1 × 10^5 L1210 cells, CDF1 mice): 2/6; tumor cell kill (L1210 cells [1]; single intraperitoneal injection 150 mg/Kg, L1210, CDF1 mice): ~5 log; increase in life span of the dying animals over the controls (L1210 cells [1]; [3]): 211%; long term survivors (>60 days) (L1210 cells [1]; [3]): 33% |
| Cc1cn([C@H]2C[C@H](NC(=O)N(CCCl)N=O)[C@@H](CO)O2)c(=O)[nH]c1=O [Compound 10, 3'-[3-(2-chloroethyl)-3-nitrosoureido]-3'-deoxythymidine] | 1500 | 0 | 28 | 40 | 0 | 32 | 51 | 0 | 22 | 45 | 54 | Percent Reversal (L1210 cells [2]; reversing agent deoxycytidine 1 μM): 5%; Percent Reversal (L1210 cells [2]; reversing agent deoxyuridine 1 μM): 4% |
| Cc1cn([C@H]2C[C@H](NC(=O)N(C)N=O)[C@@H](CO)O2)c(=O)[nH]c1=O [Compound 11, 3'-(3-methyl-3-nitrosoureido)-3'-deoxythymidine] | – | 0 | 42 | 74 | 0 | 49 | 81 | 0 | 21 | 54 | 62 | IC50 (L1210 leukemia cells; L1210 cells in culture, 72 hours, Coulter counter, Fischer's media with 10% horse serum, 37°): 1000 nM; inhibition at 5 µM (L1210 cells [2]; Mus musculus, compound 11 5 μM, no deoxycytidine, L1210, 72 hours, read-out: Percent Inhibition): 100%; Percent Inhibition (L1210 cells [2]; compound 11 5 μM + deoxycytidine 5 μM, L1210, 72 hours): 58%; Percent Inhibition (L1210 cells [2]; compound 11 5 μM + deoxycytidine 25 μM, L1210, 72 hours): 26%; Percent Inhibition (L1210 cells [2]; compound 11 5 μM + deoxycytidine 125 μM, L1210, 72 hours): 0%; Percent Reversal (L1210 cells [2]; reversing agent deoxycytidine 125 μM): 100% |
